Legend:
Cathepsin K = molecular target: T1, Cathepsin K (Homo sapiens, UniProt P43235); test: Inhibitory potency against human Cathepsin K
T1 sequence (P43235 whole entry): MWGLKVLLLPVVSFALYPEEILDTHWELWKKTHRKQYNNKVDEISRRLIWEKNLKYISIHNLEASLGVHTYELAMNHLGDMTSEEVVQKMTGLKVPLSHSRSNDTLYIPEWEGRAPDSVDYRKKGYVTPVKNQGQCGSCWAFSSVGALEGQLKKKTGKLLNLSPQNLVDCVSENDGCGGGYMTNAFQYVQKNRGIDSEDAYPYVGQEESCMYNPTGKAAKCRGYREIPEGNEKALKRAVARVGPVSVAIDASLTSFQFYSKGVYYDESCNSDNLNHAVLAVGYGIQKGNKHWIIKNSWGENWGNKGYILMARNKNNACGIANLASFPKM

[1] = molecular target: Cathepsin (B and K) (Homo sapiens) (UniProt P43235+P07858); test: Selectivity for human Cathepsins B and K; assay type: protein assay
[2] = molecular target: Cathepsin (H and K) (Homo sapiens) (UniProt P09668+P43235); test: Selectivity for human Cathepsins H and K; assay type: protein assay
Chain of Cathepsin (H and K) (Homo sapiens) (P09668 whole entry, looked up, one chain of several): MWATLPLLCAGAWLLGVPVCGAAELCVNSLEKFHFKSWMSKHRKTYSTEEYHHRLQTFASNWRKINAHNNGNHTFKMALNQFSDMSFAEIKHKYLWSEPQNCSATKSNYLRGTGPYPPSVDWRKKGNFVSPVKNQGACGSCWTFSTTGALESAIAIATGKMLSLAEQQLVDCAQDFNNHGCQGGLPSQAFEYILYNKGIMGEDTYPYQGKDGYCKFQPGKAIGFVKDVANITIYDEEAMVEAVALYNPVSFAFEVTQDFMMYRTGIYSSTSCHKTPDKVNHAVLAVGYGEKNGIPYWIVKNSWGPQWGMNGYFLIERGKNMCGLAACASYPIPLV

[3] = molecular target: Cathepsin (L and K) (Homo sapiens) (UniProt P43235+P07711); test: Selectivity for human Cathepsins L and K; assay type: protein assay
Chain of Cathepsin (L and K) (Homo sapiens) (P07711 whole entry, looked up, one chain of several): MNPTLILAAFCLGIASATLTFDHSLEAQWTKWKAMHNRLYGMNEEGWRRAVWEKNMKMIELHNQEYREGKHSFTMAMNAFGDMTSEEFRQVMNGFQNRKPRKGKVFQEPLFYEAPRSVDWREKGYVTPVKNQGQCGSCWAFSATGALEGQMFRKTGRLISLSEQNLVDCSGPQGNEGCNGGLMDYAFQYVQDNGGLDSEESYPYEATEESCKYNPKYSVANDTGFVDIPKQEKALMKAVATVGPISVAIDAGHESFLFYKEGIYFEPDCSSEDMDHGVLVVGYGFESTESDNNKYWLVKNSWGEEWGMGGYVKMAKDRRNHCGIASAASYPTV

[4] = molecular target: Cathepsin (V and K) (Homo sapiens) (UniProt P43235+O60911); test: Selectivity for human Cathepsins V and K; assay type: protein assay
Chain of Cathepsin (V and K) (Homo sapiens) (O60911 whole entry, looked up, one chain of several): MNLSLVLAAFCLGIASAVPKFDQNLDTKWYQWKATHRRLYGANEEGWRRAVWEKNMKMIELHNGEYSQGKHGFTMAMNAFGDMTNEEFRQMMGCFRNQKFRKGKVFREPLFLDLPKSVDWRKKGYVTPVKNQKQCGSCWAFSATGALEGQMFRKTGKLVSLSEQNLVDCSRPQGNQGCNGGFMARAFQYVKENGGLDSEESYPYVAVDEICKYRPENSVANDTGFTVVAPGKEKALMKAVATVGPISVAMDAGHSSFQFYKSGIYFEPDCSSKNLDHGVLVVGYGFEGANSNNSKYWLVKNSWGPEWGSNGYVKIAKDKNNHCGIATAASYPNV

[5] = molecular target: Cathepsin (S and K) (Homo sapiens) (UniProt P25774+P43235); test: Selectivity for human Cathepsins S and K; assay type: protein assay
Chain of Cathepsin (S and K) (Homo sapiens) (P25774 whole entry, looked up, one chain of several): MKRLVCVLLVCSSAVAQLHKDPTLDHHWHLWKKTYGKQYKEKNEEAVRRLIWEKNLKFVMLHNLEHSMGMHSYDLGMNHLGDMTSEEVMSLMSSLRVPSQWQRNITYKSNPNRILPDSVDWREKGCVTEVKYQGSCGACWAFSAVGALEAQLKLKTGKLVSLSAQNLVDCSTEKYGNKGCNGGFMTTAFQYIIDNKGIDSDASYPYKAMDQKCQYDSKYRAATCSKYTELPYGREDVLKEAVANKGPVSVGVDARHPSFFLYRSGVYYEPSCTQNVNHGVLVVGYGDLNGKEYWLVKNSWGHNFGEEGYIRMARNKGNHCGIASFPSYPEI

Structure (SMILES)	IC50 (Cathepsin K)	other results
CCCC[C@H](NC(=O)OCC1(COc2ccnc(N3CCN(c4ccccc4)CC3)n2)CCC1)C(=O)C(=O)N[C@H](C)c1ccccc1	31 nM	–
CCCC[C@H](NC(=O)OCC1(COc2nc(-c3ccc(C)cc3)cs2)CCC1)C(=O)C(=O)N[C@H](C)c1ccccc1	150 nM	–
CCCC[C@H](NC(=O)OCC1(COc2nnc(C)cc2-c2ccccc2)CCC1)C(=O)C(=O)N[C@H](C)c1ccccc1	57 nM	–
CCCC[C@H](NC(=O)OCC1(CSc2nccn2-c2ccccc2)CCC1)C(=O)C(=O)N[C@H](C)c1ccccc1	87 nM	–
CCCC[C@H](NC(=O)OCC1(CSc2nccs2)CCC1)C(=O)C(=O)N[C@H](C)c1ccccc1	17 nM	Selectivity [1]: 390; Selectivity [2]: > 720; Selectivity [3]: 250; Selectivity [4]: 41; Selectivity [5]: 4
CCCC[C@H](NC(=O)OCC1(CCCSc2nccn2C)CCC1)C(=O)C(=O)N[C@H](C)c1ccccc1	1900 nM	–
CCCC[C@H](NC(=O)OCC1(Cc2nc(-c3ccccc3)cs2)CCC1)C(=O)C(=O)N[C@H](C)c1ccccc1	5.5 nM	Selectivity [1]: 660; Selectivity [2]: > 230; Selectivity [3]: 220; Selectivity [4]: 20; Selectivity [5]: 22
CCCC[C@H](NC(=O)OCC1(COc2ncnc3ccsc23)CCC1)C(=O)C(=O)N[C@H](C)c1ccccc1	98 nM	–

More lines, main results first:

IC50 (Cathepsin K)	Structure (SMILES)	other results
85 nM	CCCC[C@H](NC(=O)OCC1(COc2ccnc(Cl)n2)CCC1)C(=O)C(=O)N[C@H](C)c1ccccc1	–
11 nM	CCCC[C@H](NC(=O)OCC1(CSc2ncccn2)CCC1)C(=O)C(=O)N[C@H](C)c1ccccc1	–
9.5 nM	CCCC[C@H](NC(=O)OCC1(CSc2nccc(-c3ccc(Cl)cc3)n2)CCC1)C(=O)C(=O)N[C@H](C)c1ccccc1	–
54 nM	CCCC[C@H](NC(=O)OCC1(COc2ccnc(N3CCOCC3)n2)CCC1)C(=O)C(=O)N[C@H](C)c1ccccc1	–
> 12000 nM	CCCC[C@H](NC(=O)OCC1(CCCOc2ccnc(Cl)n2)CCC1)C(=O)C(=O)N[C@H](C)c1ccccc1	–
51 nM	CCCC[C@H](NC(=O)OCC1(CSc2nc3ccccc3o2)CCC1)C(=O)C(=O)N[C@H](C)c1ccccc1	–
> 12000 nM	CCCC[C@H](NC(=O)OCC1(CCSc2nccn2C)CCC1)C(=O)C(=O)N[C@H](C)c1ccccc1	–
61 nM	CCCC[C@H](NC(=O)OCC1(CSc2nccn2C)CCC1)C(=O)C(=O)N[C@H](C)c1ccccc1	–
260 nM	CCCC[C@H](NC(=O)OCC1(COc2ncccn2)CCC1)C(=O)C(=O)N[C@H](C)c1ccccc1	–
37 nM	CCCC[C@H](NC(=O)OCC1(COc2nccs2)CCC1)C(=O)C(=O)N[C@H](C)c1ccccc1	–
54 nM	CCCC[C@H](NC(=O)OCC1(COc2ccnc(N3CCN(C)CC3)n2)CCC1)C(=O)C(=O)N[C@H](C)c1ccccc1	–
50 nM	CCCC[C@H](NC(=O)OCC1(COc2nc(-c3ccccc3)ns2)CCC1)C(=O)C(=O)N[C@H](C)c1ccccc1	–
230 nM	CCCC[C@H](NC(=O)OCC1(CSc2ncc(-c3ccc(Cl)cc3)n2C)CCC1)C(=O)C(=O)N[C@H](C)c1ccccc1	–

Source: ChEMBL document CHEMBL1138698, “Ketoamide-based inhibitors of cysteine protease, cathepsin K: P3 modifications” (J Med Chem, 2004)
